According to patent US7141573B2, “Polypharmacophoric agents” (Molecular Insight Pharmaceuticals, Inc., priority 2000, dated 2006):
Read-outs that look alike come from different tables or passages of the source.

Legend:
[1] = target: T1, human dopamine transporter (hDAT) (Homo sapiens, UniProt Q01959); experiment: [125I]RTI-55 binding to human dopamine transporter in HEK-293 hDAT membranes; settings: for Hill Coefficient: [125I]RTI-55 binding
T1 construct: expressed in transfected cells; host or cells: HEK-293 cells stably expressing recombinant hDAT
T1 sequence (Q01959 whole entry): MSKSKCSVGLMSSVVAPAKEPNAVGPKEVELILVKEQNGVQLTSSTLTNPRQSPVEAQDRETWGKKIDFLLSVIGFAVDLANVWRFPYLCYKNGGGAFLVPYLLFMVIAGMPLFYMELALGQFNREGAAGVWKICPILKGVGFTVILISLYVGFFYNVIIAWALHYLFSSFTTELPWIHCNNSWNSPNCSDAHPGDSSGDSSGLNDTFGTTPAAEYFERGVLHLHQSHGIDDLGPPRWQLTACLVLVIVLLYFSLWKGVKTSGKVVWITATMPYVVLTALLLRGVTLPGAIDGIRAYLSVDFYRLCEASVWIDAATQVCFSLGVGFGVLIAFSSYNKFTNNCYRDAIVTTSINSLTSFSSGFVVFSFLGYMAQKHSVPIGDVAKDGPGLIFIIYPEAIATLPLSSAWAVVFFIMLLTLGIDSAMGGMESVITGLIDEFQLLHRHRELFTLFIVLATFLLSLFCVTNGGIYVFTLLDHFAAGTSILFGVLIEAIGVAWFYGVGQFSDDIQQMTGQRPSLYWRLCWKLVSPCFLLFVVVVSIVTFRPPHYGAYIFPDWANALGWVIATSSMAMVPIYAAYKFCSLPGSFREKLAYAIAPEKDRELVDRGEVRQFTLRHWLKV
Protocol: To characterize drug interactions with the human dopamine transporter (hDAT), drugs (approximately 30 nM to 10 μM) were incubated with a membrane preparation from HEK-293 cells stably expressing the recombinant hDAT, [^125I]RTI-55 (34 pM), and buffer in a final volume of 250 μl. Independent assays were conducted 2 to 3 times with duplicate determinations. The Cheng-Prusoff equation was used to convert IC50 values to Ki values.

hDAT = target: T2, hDAT (Homo sapiens, UniProt Q01959); experiment: [3H]DA uptake in HEK hDAT cells; assay type: cell-based; settings: Table II
T2 construct: expressed in transfected cells; host or cells: HEK-293 cells stably expressing recombinant hDAT
T2 sequence (Q01959 whole entry): as above

hSERT [2] = target: T3, hSERT (Homo sapiens, UniProt P31645); experiment: [125I]RTI-55 binding in HEK hSERT membranes; settings: Table II; bound given in μM
T3 construct: expressed in transfected cells; host or cells: HEK cells expressing hSERT
T3 sequence (P31645 whole entry): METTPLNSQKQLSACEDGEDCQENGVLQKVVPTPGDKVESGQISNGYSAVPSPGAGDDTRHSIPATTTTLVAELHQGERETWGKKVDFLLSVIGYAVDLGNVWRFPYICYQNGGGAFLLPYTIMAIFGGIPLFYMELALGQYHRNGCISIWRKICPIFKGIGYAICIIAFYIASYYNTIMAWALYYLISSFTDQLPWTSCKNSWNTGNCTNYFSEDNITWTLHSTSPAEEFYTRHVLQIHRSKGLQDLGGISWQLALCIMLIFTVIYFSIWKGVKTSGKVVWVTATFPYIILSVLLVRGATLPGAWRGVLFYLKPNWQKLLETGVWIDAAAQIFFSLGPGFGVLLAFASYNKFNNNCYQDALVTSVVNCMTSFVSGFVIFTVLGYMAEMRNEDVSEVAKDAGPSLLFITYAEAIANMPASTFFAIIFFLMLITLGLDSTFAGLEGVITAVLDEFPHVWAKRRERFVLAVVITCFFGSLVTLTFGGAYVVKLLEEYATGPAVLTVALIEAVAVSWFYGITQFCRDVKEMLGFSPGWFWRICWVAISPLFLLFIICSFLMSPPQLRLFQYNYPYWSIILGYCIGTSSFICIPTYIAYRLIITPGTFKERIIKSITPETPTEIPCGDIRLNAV

hSERT [3] = target: T3, hSERT; experiment: [3H]5HT uptake in HEK-hSERT cells; assay type: cell-based; settings: Table II; bound given in μM
hNET [4] = target: T4, hNET (Homo sapiens, UniProt P23975); experiment: [125I]RTI-55 binding in HEK-hNET membranes; settings: Table II
T4 construct: expressed in transfected cells; host or cells: HEK cells expressing hNET
T4 sequence (P23975 whole entry): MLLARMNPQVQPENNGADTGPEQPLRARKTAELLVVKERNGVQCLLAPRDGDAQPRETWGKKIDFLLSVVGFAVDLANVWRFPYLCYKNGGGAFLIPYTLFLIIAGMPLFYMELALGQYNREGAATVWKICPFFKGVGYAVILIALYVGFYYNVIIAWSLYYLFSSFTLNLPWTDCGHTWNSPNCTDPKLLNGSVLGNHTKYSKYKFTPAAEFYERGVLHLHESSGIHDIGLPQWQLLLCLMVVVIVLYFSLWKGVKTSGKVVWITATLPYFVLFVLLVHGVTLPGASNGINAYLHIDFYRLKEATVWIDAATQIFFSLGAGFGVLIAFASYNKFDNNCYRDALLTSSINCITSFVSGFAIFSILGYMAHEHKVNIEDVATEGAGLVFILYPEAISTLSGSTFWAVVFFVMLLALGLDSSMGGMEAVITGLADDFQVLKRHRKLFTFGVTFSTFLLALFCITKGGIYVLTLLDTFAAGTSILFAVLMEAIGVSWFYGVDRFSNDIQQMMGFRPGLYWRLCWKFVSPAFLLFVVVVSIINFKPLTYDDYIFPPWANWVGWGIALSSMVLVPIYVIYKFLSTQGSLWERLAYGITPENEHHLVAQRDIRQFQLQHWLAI

hNET [5] = target: T4, hNET; experiment: [3H]NE uptake in HEK-hNET cells; assay type: cell-based; settings: Table II
[6] = Table II, bound given in μM, read-out: [125I]RTI-55 Binding in HEK hDAT Membranes Ki
[7] = bound given in μM, read-out: [3H]DA Uptake in HEK hDAT cells IC50
[8] = bound given in μM, read-out: [125I]RTI-55 Binding in HEK-hNET Membranes KI
[9] = bound given in μM, read-out: [3H]NE Uptake in HEK-hNET cells IC50
[10] = Table 1, [125I]RTI-55 34 pM, HEK-293 hDAT membranes, mean +/- range or s.e.m. of 2 or 3 experiments, read-out: Ki value
[11] = Table 1, HEK-293 hDAT membranes
[12] = Table II, read-out: [125I]RTI-55 Binding in HEK hDAT Membranes Ki (nM) sem
[13] = read-out: [3H]DA Uptake in HEK hDAT cells IC50 (nM) sem
[14] = read-out: [125I]RTI-55 Binding in HEK-hNET Membranes KI (nM) sem
[15] = read-out: [3H]NE Uptake in HEK-hNET cells IC50 (nM) sem

SMILES | Ki [1, 6] | IC50 (hDAT; [7]) | Ki (hSERT [2]) | IC50 (hSERT [3]) | Ki (hNET [4]; [8]) | IC50 (hNET [5]; [9]) | Ki [1, 10] | Hill Coefficient [1, 11] | [125I]RTI-55 Binding in HEK hDAT Membranes Hill slope ([1]; Table II) | Ki [1, 12] | IC50 (hDAT; [13]) | [125I]RTI-55 Binding in HEK-hNET Membranes Hill slope (hNET [4]) | Ki (hNET [4]; [14]) | IC50 (hNET [5]; [15])
CC(Cc1cccc(C(F)(F)F)c1)NC(/C=C/c1ccccc1)C(=O)O (stereo not shown) [RNH-Z-58] | > 10 µM | > 10 µM | > 10 µM | > 10 µM | > 10 µM | > 10 µM |  |  |  |  |  |  |  | 
O=C(O)C(/C=C/c1ccccc1)C1CCN(CCOC(c2ccc(F)cc2)c2ccc(F)cc2)CC1 (stereo not shown) [ZHN-93] |  |  | > 10 µM | > 10 µM |  |  | 0.727 ± 0.291 µM | −1.0 ± 0.3 | −1.02 ± 0.30 | 0.727 ± 0.291 µM | 0.182 ± 0.059 µM | −1.78 ± 0.65 | 4.54 ± 1.54 µM | 0.117 ± 0.02 µM
CN(CCC=C1c2ccccc2CCc2ccccc21)C(/C=C/c1ccccc1)C(=O)O (stereo not shown) [RNH-Z-44] |  |  | > 10 µM | > 10 µM | > 10 µM | > 10 µM | 3.3 ± 0.855 µM | −2.2 ± 0.9 | −2.16 ± −0.89 | 3.3 ± 0.855 µM | 1.82 ± 0.819 µM |  |  | 
O=C(NCc1cccc2ccccc12)C(/C=C/c1ccccc1)N1CCC(c2ccccc2)CC1 (stereo not shown) [RNH-Z-31] |  | > 10 µM | > 10 µM | > 10 µM | > 10 µM | > 10 µM | 7.73 ± 3.07 µM | −7.0 ± 4.5 | −7.00 ± 4.54 | 7.73 ± 3.07 µM |  |  |  | 
O=C(O)C(/C=C/c1ccccc1)N1CCN(CCOC(c2ccccc2)c2ccccc2)CC1 (stereo not shown) [ZHN-94] |  |  | > 10 µM | > 10 µM | > 10 µM |  | 2.78 ± 1.25 µM | −0.8 ± 0.2 | −0.78 ± 0.17 | 2.78 ± 1.25 µM | 0.385 ± 0.111 µM |  |  | 2.19 ± 0.47 µM
CN(CCCN1c2ccccc2C=Cc2ccccc21)C(/C=C/c1ccccc1)C(=O)O (stereo not shown) [RNH-Z-52] | > 10 µM | > 10 µM | > 10 µM | > 10 µM | > 10 µM | > 10 µM |  |  |  |  |  |  |  | 
CN(C)C(=O)C(/C=C/c1ccccc1)N1CCC(c2ccccc2)CC1 (stereo not shown) [RNH-Z-28] |  |  | > 10 µM | > 10 µM | > 10 µM |  | 3.92 ± 1.25 µM | −2.1 ± 0.6 | −2.09 ± 0.60 | 3.92 ± 1.25 µM | 4.04 ± 1.63 µM |  |  | 0.211 ± 0.065 µM
c1ccc(CCCN2CCN(CCOC(c3ccccc3)c3ccccc3)CC2)cc1 [GBR-12935, reference compound] |  |  |  |  |  |  |  |  |  |  |  | −0.90 ± 0.07 | 0.628 ± 0.059 µM | 0.165 ± 0.017 µM
O=C(O)C(/C=C/c1ccccc1)N1CCC(c2ccccc2)CC1 (stereo not shown) [RNH-Z-24] | > 10 µM | > 10 µM | > 10 µM | > 10 µM | > 10 µM |  |  |  |  |  |  |  |  | 0.204 ± 0.085 µM
O=C(O)C(/C=C/c1ccccc1)N1CCC(O)(c2ccc(Cl)cc2)CC1 (stereo not shown) [RNH-Z-48] | > 10 µM | > 10 µM | > 10 µM | > 10 µM | > 10 µM | > 10 µM |  |  |  |  |  |  |  | 
O=C(O)C(/C=C/c1ccccc1)C1CCN(CCOC(c2ccccc2)c2ccccc2)CC1 (stereo not shown) [ZHN-92] |  |  | > 10 µM | > 10 µM | > 10 µM |  | 3.71 ± 1.25 µM | −1.2 ± 0.2 | −1.15 0.15 |  | 2.01 ± 0.428 µM |  |  | 0.113 ± 0.015 µM
O=C(O)C(/C=C/c1ccccc1)NC1CCc2ccccc21 (stereo not shown) [RNH-Z-39] | > 10 µM | > 10 µM | > 10 µM | > 10 µM |  | > 10 µM |  |  |  |  |  | −0.96 ± 0.17 | 2.92 ± 1.23 µM | 
